# Source: PMC8556396, “Statin-mediated disruption of Rho GTPase prenylation and activity inhibits respiratory syncytial virus infection” (Communications Biology, 2021)
# Values joined by “and” are separate entries in the source; they are usually repeats but may differ in a detail not shown here. Identical values can stand only once. Counter-ions that a name gives are not always drawn.
# Assays:
# Format in all cases: cell-based, Respiratory syncytial virus
# [1] = test system: RSV-GFP
# Description: WD-PNECs were cultured as per the referenced protocol. Using a sterile cytology brush, nasal scrapings were obtained from healthy volunteers with no known history of lung disease or respiratory medication use. Cells were then seeded on a collagen-coated flask and maintained in Bronchial Epithelial Cell Growth Medium (BEGM) (CC-3170, Lonza) or PneumaCult-Ex (05008, […] Technologies). Upon reaching 70% confluency, cells were passaged and seeded on collagen-coated transwell inserts (6.5 mm diameter, 0.4 µm pore size) (3413, Corning). An air–liquid interface was generated by removing media on the apical side of the cells and replacing the remaining media with PneumaCult-ALI media (05001, […] Technologies). By week 3, cells were differentiated with a ciliated phenotype. Transepithelial resistance was quantified using an ohmmeter (World Precision Instruments) to evaluate epithelial barrier function prior to experimentation. Cells were apically infected with RSV-GFP (MOI 0.01) and infection rates were quantified from GFP signal.
# [2] = test system: RSV-GFP; test: Time-of-drug addition assay; conditions: for antiviral effect by time of addition: 3.5 µM; for RSV-GFP inhibition (% of maximum): MOI 2.0, read 24 h p.i.
# Description: Time-of-drug addition assays are routinely used to assess the approximate stage of viral infection affected by a drug[25]. HEp-2 cells were seeded to black, flat, microclear-bottom 96-well plates (Greiner Bio-One) and infected with RSV-GFP (MOI 2.0). […]. RSV-GFP infection rates were quantified 24 h p.i to approximately capture a single cycle of infection.
# [3] = test system: RSV A2; test: Western blot of total viral protein levels (pan-RSV antibody); conditions: 24 h p.i.
# Description: Prior studies in HEp-2 cells have shown that RSV mRNA and proteins can be detected 4–6 h p.i., while assembly is initiated roughly 10–12 h p.i., and mature viral filaments can be observed at the cell surface 16–18 h p.i.[26]–[28]. […] To verify this finding, a traditional plaque assay was performed to quantify infectious virus production from the supernatants of statin-treated RSV A2-infected HEp-2 cells. […] Lysates were also collected from RSV A2-infected HEp-2 cells (MOI 0.5) 24 h p.i. to probe viral protein expression by western blot. […] Changes to the expression and localization of the viral fusion glycoprotein (F) and nucleoprotein (N) were visualized by high-resolution confocal microscopy.
# Box plots indicate the complete range (whiskers), interquartile range (box), and median (line) of measurements. […] Blots were stained using a pan-RSV polyclonal antibody (B65860G) that detects all viral antigens (see Supplementary Fig. 2). GAPDH controls were processed on a parallel blot with the same samples and protein load. Values are reported as means ± SEM (n = 3 cell lysates). d High-resolution confocal microscopy of the F (green) and N (magenta) proteins in RSV A2-infected HEp-2 cells (MOI 0.5). […] Scale bars = 20 µm. Statistics were calculated by a one-way ANOVA with a Dunnett’s multiple comparisons post hoc test (*P < 0.05, ***P < 0.001, ****P < 0.0001).
# Supplementary Figure 2. Changes to viralprotein expression by statin or Rho GTPase inhibitor treatment. HEp-2 cells were infected with […]
# post-viralexposure. Cell lysates were collected 24 h p.i.and viralprotein expression was probed using a pan-RSV polyclonal antibody (B65860G) which detects allviralantigens (n ≥2 cell lysates).GAPDH controlswere processed on parallelblots withthe same samples and protein load. […]
smiles,measurement,setting,value
"CC(C)c1c(C(=O)Nc2ccccc2)c(-c2ccccc2)c(-c2ccc(F)cc2)n1CC[C@@H](O)C[C@@H](O)CC(=O)O [Atorvastatin, Atorvastatin calcium salt trihydrate]",reduction of RSV-GFP infection,"[1]; atorvastatin 5.0 µM, 72 h post-infection, mean ± SEM",67.4 ± 11.5%
same,cellular viability of PNECs,[1]; microscopic appearance and barrier integrity,Cellular viability remained intact
same,antiviral effect by time of addition,[2]; added 8–22 h p.i.,loss in antiviral effect
same,antiviral effect by time of addition,[2]; added 2 h pre-infection vs. 2–6 h post-infection,No difference in antiviral effect
same,RSV-GFP inhibition (% of maximum),[2]; atorvastatin 3.5 µM added 2 h p.i.,93.8741 % of maximum and 100 % of maximum and 63.7076 % of maximum and 87.4617 % of maximum
same,RSV-GFP inhibition (% of maximum),[2]; atorvastatin 3.5 µM added 4 h p.i.,79.9181 % of maximum and 67.4308 % of maximum and 95.7721 % of maximum and 95.1175 % of maximum
same,RSV-GFP inhibition (% of maximum),[2]; atorvastatin 3.5 µM added 6 h p.i.,73.0198 % of maximum and 92.897 % of maximum and 83.1029 % of maximum and 75.3925 % of maximum
same,RSV-GFP inhibition (% of maximum),[2]; atorvastatin 3.5 µM added 8 h p.i.,73.881 % of maximum and 38.0526 % of maximum and 68.6457 % of maximum and 56.4404 % of maximum
same,RSV-GFP inhibition (% of maximum),[2]; atorvastatin 3.5 µM added -2 h p.i.,95.6726 % of maximum and 68.3345 % of maximum and 91.0474 % of maximum and 75.5348 % of maximum
same,Total viral protein levels (GAPDH normalized),"[3]; MOI 0.5, atorvastatin 3.5 uM, simvastatin 1.5 uM, one value per lysate",1.385 and 1.458 and 1.299
same,total viral protein levels by western blot,"[3]; atorvastatin 3.5 µM, simvastatin 1.5 µM, EHT 1864 20.0 µM",decrease in total viral protein levels
